These results are taken from PMC3531393, “In Vitro Evaluation of ESE-15-ol, an Estradiol Analogue with Nanomolar Antimitotic and Carbonic Anhydrase Inhibitory Activity” (PLoS ONE, 2012).

The assay deals with T1, carbonic anhydrase II (CAII) (Homo sapiens, UniProt P00918).
T1 construct: gene CA2; wild-type
Nature of the assay: […] exchange between CO2 and water by membrane-inlet mass spectrometry; Henderson tight-binding analysis. It is filed as biochemical.

For `CCc1cc2c(cc1OS(N)(=O)=O)CC[C@@H]1C2CC[C@]2(C)[C@@H](O)C=C[C@@H]12` (stereo partly shown) [ESE-15-ol, 2-ethyl-3-O-sulphamoyl-estra-1,3,5(10),15-tetraen-17-ol], the Ki – broadly, the equilibrium dissociation constant of an inhibitor or competing ligand from its target – was 167 ± 19 nM.
